Results: article PMC10377586 (Biomolecules, 2023)

Key:
[1] = target: T1, human MAO-B (Homo sapiens, UniProt P27338); assay: Amplex Red monoamine oxidase assay, MAO-B; type: biochemical; settings: human recombinant MAO-B; read-out: MAO-B IC50 ± SEM
T1 construct: purchased Sigma Aldrich M7441
T1 sequence (P27338 1-520): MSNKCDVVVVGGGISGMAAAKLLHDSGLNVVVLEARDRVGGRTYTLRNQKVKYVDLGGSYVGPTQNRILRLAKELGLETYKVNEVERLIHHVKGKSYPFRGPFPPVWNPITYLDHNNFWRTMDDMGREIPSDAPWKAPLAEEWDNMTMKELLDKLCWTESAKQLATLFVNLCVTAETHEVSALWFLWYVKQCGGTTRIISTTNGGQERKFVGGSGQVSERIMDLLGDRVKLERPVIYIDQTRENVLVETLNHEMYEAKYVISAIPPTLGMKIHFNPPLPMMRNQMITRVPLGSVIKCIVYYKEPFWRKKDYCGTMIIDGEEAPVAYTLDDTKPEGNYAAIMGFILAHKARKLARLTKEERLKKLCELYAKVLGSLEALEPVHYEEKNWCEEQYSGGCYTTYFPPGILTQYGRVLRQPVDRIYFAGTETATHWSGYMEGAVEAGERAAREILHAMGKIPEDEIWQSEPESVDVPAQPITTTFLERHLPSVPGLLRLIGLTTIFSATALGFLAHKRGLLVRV

[2] = target: T2, human A3 (hA3) ARs (Homo sapiens, UniProt P0DMS8); assay: Radioligand binding [3H]PSB-11, CHO cell membranes; settings: for Ki: CHO cell membranes, read-out: hA3 [3H]PSB-11 Ki ± SEM; for inhibition at 1 µM: read-out: hA3 [3H]PSB-11 % inhibition ± SEM at 1 µM
T2 construct: expressed in transfected cells; host or cells: CHO cells (membranes)
T2 sequence (P0DMS8 1-318): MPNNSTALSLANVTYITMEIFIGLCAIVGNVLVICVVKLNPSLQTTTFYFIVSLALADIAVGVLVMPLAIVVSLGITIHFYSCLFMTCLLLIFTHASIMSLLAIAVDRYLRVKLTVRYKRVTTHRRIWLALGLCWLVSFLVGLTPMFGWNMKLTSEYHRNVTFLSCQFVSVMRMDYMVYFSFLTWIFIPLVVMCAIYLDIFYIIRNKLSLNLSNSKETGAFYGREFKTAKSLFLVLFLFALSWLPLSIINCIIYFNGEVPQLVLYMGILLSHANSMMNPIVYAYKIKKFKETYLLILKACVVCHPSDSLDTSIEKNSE
Description: The final compounds were tested in radioligand binding assays to evaluate their affinity for all four ARs subtypes (see Table 2). Rat brain cortical membrane preparations were used as a source of rat A1 (rA1) ARs, and rat brain striatal membrane preparations served as a source of rat A2A (rA2A) ARs. For A2B- and A3AR assays, membrane preparations of Chinese hamster ovary (CHO) cells recombinantly expressing either human A2B (hA2B) or human A3 (hA3) ARs were employed.
Adenosine receptor radioligand binding assays were performed as previously described using rat brain cortical membrane preparations for A1 and rat brain striatal membrane preparations for A2A AR assays. Frozen rat brains (unstripped) were obtained from Pel Freez, Rogers, AR, USA. For assays at human AR subtypes, cell membranes of CHO cells recombinantly expressing the respective receptor were used. The following compounds were employed as radioligands: A1: [^3H]2-chloro-N^6-cyclopentyladenosine ([^3H]CCPA); A2A: [^3H]3-(3-hydroxypropyl)-7-methyl-8-(m-methoxystyryl)-1-propargylxanthine ([^3H]MSX-2); A2B: [^3H]8-(4-(4-(4-chlorophenyl)piperazine-1-sulfonyl)phenyl)-1-propylxanthine ([^3H]PSB-603); A3: [^3H]phenyl-8-ethyl-4-methyl-(8R)-4,5,7,8-tetrahydro-1H-imidazo[2,1-i]purine-5-one ([^3H]PSB-11). Initially, a single high concentration of compound was tested (1 µM). For potent compounds, full concentration–inhibition curves were determined using six to ten different concentrations of test compound spanning three orders of magnitude. At least three independent experiments were performed. Data were analyzed using GraphPad PRISM program version 4.0 or higher (Graph Pad, San Diego, CA, USA).

[3] = target: T3, rat D1 receptor (Rattus norvegicus, UniProt P18901); assay: Radioligand binding [3H]SCH23390, rat brain tissue; settings: for Ki: native rat D1 receptor, read-out: rD1 [3H]SCH23390 Ki ± SEM; for inhibition at 1 µM: read-out: rD1 [3H]SCH23390 % inhibition ± SEM at 1 µM
T3 construct: source of native rat D1 receptor protein; from tissue; host or cells: rat striatum (methods) / rat brain cortical membranes
Description: Rat brain cortical membranes were used as source of native rat D1 receptor protein, and human D2 receptor was recombinantly expressed in HEK293 cells.
Rat striatum tissue was thawed in 50 volumes of ice-cold 50 mM potassium phosphate buffer, pH 7.4, homogenized and centrifuged at 20,000× g for 20 min. The resulting pellet was resuspended in the same quantity of the buffer and centrifuged again for 20 min. Binding experiments were conducted in 96-well microplates in a total volume of 250 μL of appropriate buffers. Reaction mix included 50 μL solution of test compound, 50 μL of radioligand, and 150 μL of tissue suspension (3 mg/mL). [^3H]SCH23390 (spec. act. 81.9 Ci/mmol, PerkinElmer, NET 930) was used for labeling the D1-receptor. For measuring unspecific binding, cis(Z)flupentixol—5 μM was applied. Samples were incubated at 30 °C for 60 min. The incubation was terminated by rapid filtration over glass fiber filters GF/B using a Harvester (PerkinElmer, USA). The radioactivity was measured in MicroBeta TriLux 1450—liquid scintillation counter (PerkinElmer). Each compound was tested in a screening assay in duplicate at final concentrations of 1 µM. Results were expressed as a percent of inhibition of specific binding.

T3 sequence (P18901 whole entry): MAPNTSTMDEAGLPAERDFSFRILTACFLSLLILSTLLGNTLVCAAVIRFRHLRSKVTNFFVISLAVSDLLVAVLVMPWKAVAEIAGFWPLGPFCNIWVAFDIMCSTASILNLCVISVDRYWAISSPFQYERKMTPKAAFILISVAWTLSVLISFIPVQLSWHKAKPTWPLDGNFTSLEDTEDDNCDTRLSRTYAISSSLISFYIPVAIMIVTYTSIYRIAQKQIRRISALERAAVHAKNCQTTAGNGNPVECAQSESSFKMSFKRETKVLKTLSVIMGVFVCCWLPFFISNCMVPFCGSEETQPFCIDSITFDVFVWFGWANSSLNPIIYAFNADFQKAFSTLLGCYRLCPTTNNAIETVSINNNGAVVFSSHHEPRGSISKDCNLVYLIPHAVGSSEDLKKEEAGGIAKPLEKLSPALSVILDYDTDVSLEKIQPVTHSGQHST

IC50 [1] | Ki [2] | inhibition at 1 µM [2] | Ki [3] | inhibition at 1 µM [3] | SMILES
0.0456 ± 0.0129 µM | > 1 µM | 7% | > 1 µM | 3% | Cn1c(=O)c2c(nc(NCCc3ccc(O)c(O)c3)n2Cc2ccccc2)n(C)c1=O [Compound 11j, 7-Benzyl-8-((3,4-dihydroxyphenethyl)amino)-1,3-dimethyl-3,7-dihydro-1H-purine-2,6-dione]
0.0735 ± 0.0075 µM | > 1 µM | -1% | > 1 µM | 6% | Cn1c(=O)c2c(nc(NCCc3ccc(O)c(O)c3)n2CCc2ccccc2)n(C)c1=O [Compound 11k, 8-((3,4-Dihydroxyphenethyl)amino)-1,3-dimethyl-7-phenethyl-3,7-dihydro-1H-purine-2,6-dione]
0.105 ± 0.023 µM | > 1 µM | 25% | > 1 µM | 9% | CCCn1c(=O)c2c(nc(NCCc3ccc(O)c(O)c3)n2CCC)n(CCC)c1=O [Compound 12, 8-((3,4-Dihydroxyphenethyl)amino)-1,3,7-tripropyl-3,7-dihydro-1H-purine-2,6-dione]
0.157 ± 0.039 µM | > 1 µM | 26% | > 1 µM | 12% | CCCn1c(=O)c2c(nc3n2CCCN3CCc2ccc(O)c(O)c2)n(CCC)c1=O [Compound 21, 9-(3,4-Dihydroxyphenethyl)-1,3-dipropyl-6,7,8,9-tetrahydropyrimido[2,1-f]purine-2,4(1H,3H)-dione]
0.17 ± 0.03 µM | 0.676 ± 0.143 µM | – | > 1 µM | 11% | CCCCn1c(=O)c2c(nc3n2CCCN3CCc2ccc(O)c(O)c2)n(CCCC)c1=O [Compound 22, 1,3-Dibutyl-9-(3,4-dihydroxyphenethyl)-6,7,8,9-tetrahydropyrimido[2,1-f]purine-2,4(1H,3H)-dione]

Further lines, the compound ahead of its results:

SMILES | IC50 [1] | Ki [2] | inhibition at 1 µM [2] | Ki [3] | inhibition at 1 µM [3]
CCCn1c(NCCc2ccc(O)c(O)c2)nc2c1c(=O)n(C)c(=O)n2C [Compound 11c, 8-((3,4-Dihydroxyphenethyl)amino)-1,3-dimethyl-7-propyl-3,7-dihydro-1H-purine-2,6-dione] | 0.165 ± 0.03 µM | > 1 µM | 5% | > 1 µM | 9%
CCCCn1c(NCCc2ccc(O)c(O)c2)nc2c1c(=O)n(C)c(=O)n2C [Compound 11e, 7-Butyl-8-((3,4-dihydroxyphenethyl)amino)-1,3-dimethyl-3,7-dihydro-1H-purine-2,6-dione] | 0.0438 ± 0.0162 µM | > 1 µM | 0% | > 1 µM | 13%
CC(C)Cn1c(NCCc2ccc(O)c(O)c2)nc2c1c(=O)n(C)c(=O)n2C [Compound 11f, 8-((3,4-Dihydroxyphenethyl)amino)-7-isobutyl-1,3-dimethyl-3,7-dihydro-1H-purine-2,6-dione] | 0.205 ± 0.023 µM | > 1 µM | -6% | > 1 µM | 15%
CCC(C)n1c(NCCc2ccc(O)c(O)c2)nc2c1c(=O)n(C)c(=O)n2C (stereo not drawn) [Compound 11g, 7-(Sec-butyl)-8-((3,4-dihydroxyphenethyl)amino)-1,3-dimethyl-3,7-dihydro-1H-purine-2,6-dione] | 0.197 ± 0.057 µM | > 1 µM | -4% | > 1 µM | 11%
CCCCCn1c(NCCc2ccc(O)c(O)c2)nc2c1c(=O)n(C)c(=O)n2C [Compound 11h, 8-((3,4-Dihydroxyphenethyl)amino)-1,3-dimethyl-7-pentyl-3,7-dihydro-1H-purine-2,6-dione] | 0.0583 ± 0.0062 µM | > 1 µM | 0% | > 1 µM | 12%
CCCCn1c(=O)c2c(nc(NCCc3ccc(O)c(O)c3)n2CCC)n(CCCC)c1=O [Compound 13, 1,3-Dibutyl-8-((3,4-dihydroxyphenethyl)amino)-7-propyl-3,7-dihydro-1H-purine-2,6-dione] | 0.0818 ± 0.0197 µM | > 1 µM | 17% | > 1 µM | 2%
